# Experiments:
# [1] = Inhibition of Leishmania mexicana CPB delta CTE mutant using Z-Phe-Arg-7-amido-4-methylcoumarin as substrate preincubated for 2 mins followed by substrate addition by fluorimetric assay
# [2] = target: T1, Procathepsin L (Homo sapiens, UniProt P07711); assay: Inhibition of human cathepsin L using Z-Phe-Arg-7-amido-4-methylcoumarin as substrate preincubated for 2 mins followed by substrate addition by fluorimetric assay
# [3] = target: Cruzipain (Trypanosoma cruzi, UniProt P25779); assay: Inhibition of recombinant Trypanosoma cruzi cruzain using Z-Phe-Arg-7-amido-4-methylcoumarin as substrate preincubated for 2 mins followed by substrate addition by fluorimetric assay
# Chain of Cruzipain (P25779 whole entry): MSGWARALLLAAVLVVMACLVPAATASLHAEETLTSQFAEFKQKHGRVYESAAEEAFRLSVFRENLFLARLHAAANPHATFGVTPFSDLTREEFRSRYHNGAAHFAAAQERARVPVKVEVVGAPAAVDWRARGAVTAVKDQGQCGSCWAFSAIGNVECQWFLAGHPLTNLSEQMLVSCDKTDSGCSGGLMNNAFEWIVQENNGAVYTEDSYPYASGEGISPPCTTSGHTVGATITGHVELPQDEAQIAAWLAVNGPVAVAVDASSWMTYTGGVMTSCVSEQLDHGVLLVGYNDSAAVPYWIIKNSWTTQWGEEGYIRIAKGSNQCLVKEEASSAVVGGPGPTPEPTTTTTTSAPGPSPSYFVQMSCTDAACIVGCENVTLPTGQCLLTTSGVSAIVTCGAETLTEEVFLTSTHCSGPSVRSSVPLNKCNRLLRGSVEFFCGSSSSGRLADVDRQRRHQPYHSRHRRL
# [4] = test system: Leishmania mexicana; assay: Inhibition of Leishmania mexicana CPB delta CTE mutant assessed as on rate constant
# [5] = test system: Leishmania mexicana; assay: Inhibition of Leishmania mexicana CPB delta CTE mutant assessed as off rate constant
# [6] = target: cathepsin L (Procathepsin L) (Homo sapiens, UniProt P07711); assay: Inhibition of human cathepsin L assessed as off rate constant; conditions: human cathepsin L enzyme, read-out: K
# Chain of cathepsin L (Procathepsin L) (P07711 whole entry): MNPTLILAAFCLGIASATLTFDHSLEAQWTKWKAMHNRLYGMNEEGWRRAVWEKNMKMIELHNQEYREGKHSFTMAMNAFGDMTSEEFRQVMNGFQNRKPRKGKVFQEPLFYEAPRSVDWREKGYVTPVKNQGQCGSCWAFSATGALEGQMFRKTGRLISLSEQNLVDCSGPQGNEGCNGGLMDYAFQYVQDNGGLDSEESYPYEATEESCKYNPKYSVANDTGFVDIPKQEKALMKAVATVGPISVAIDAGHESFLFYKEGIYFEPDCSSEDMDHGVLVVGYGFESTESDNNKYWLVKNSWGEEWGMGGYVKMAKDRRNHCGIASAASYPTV
# [7] = target: Cruzipain (Trypanosoma cruzi) (UniProt P25779); assay: Inhibition of recombinant Trypanosoma cruzi cruzain assessed as on rate constant
# Chain of Cruzipain (Trypanosoma cruzi) (P25779 123-467 limits assumed): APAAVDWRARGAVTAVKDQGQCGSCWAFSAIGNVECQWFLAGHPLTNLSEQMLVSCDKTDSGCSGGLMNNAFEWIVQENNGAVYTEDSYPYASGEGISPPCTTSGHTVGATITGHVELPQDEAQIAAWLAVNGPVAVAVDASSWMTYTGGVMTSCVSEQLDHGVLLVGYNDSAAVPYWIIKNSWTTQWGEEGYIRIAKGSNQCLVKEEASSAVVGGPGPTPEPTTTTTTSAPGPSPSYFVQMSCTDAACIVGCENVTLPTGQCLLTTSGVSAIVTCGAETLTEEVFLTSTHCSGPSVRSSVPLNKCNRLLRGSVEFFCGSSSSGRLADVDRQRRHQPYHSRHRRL
# [8] = target: T1, Procathepsin L; assay: Inhibition of human cathepsin L assessed as on rate constant
# [9] = target: Cruzipain (Trypanosoma cruzi) (UniProt P25779); assay: Inhibition of recombinant Trypanosoma cruzi cruzain assessed as off rate constant
# T1 sequence (P07711 whole entry): as the sequence (P07711 whole entry) above
smiles,measurement,setting,value
N#CCNC(=O)[C@H](Cc1ccccc1)NC(=O)c1cncc(Br)c1,pKi,[1],6.9
same,Ki,[2],10 nM
same,Ki,[3],158 nM
CC(C)C[C@H](NC(=O)C(F)(F)c1ccccc1)C(=O)NC1(C#N)CC1,pKi,[1],6.8
same,Ki,[2],31.6 nM
same,Ki,[3],63.1 nM
N#CCNC(=O)[C@H](Cc1ccccc1)NC(=O)OCc1ccccc1,pKi,[1],6.6
same,Ki,[2],126 nM
N#CCNC(=O)[C@H](Cc1ccccc1)NC(=O)c1ccccc1,pKi,[1],6.6
same,Ki,[2],126 nM
N#CCNC(=O)[C@H](Cc1ccccc1)NC(=O)c1ccco1,pKi,[1],6.3
same,Ki,[2],501 nM
Cn1nc(C(C)(C)C)cc1C(=O)N[C@@H](Cc1cccc(Cl)c1)C(=O)NCC#N,pKi,[1],6.6
same,Ki,[2],1.26 nM
CC(C)(C)OC(=O)N[C@@H](Cc1ccccc1)C(=O)NCC#N,pKi,[1],5.8
same,Ki,[3],2510 nM
CC(C)C[C@H](NC(=O)OC(C)(C)C)C(=O)NC1(C#N)CC1,pKi,[1],6.3
same,Ki,[2],631 nM
N#CCNC(=O)[C@H](Cc1ccccc1)NC(=O)c1cncnc1,pKi,[1],6.2
same,Ki,[2],1000 nM
same,Ki,[3],5010 nM
CC(C)C[C@H](NC(=O)C(C)(C)c1ccccc1)C(=O)NC1(C#N)CC1,pKi,[1],6.4
same,Ki,[2],39.8 nM
same,Ki,[3],158 nM
N#CCNC(=O)[C@H](Cc1ccccc1)NC(=O)c1c[nH]c(=O)[nH]c1=O,pKi,[1],6.5
same,Ki,[2],1000 nM
same,Ki,[3],1260 nM
N#CCNC(=O)[C@H](Cc1ccc(OC(=O)c2ccccc2)cc1)NC(=O)c1ccccc1,pKi,[1],6.9
same,Ki,[2],251 nM
CC(C)C[C@H](NC(=O)Cc1ccccc1)C(=O)NC1(C#N)CC1,pKi,[1],7.2
same,Ki,[2],63.1 nM
same,Ki,[3],39.8 nM
CC(C)C[C@H](NC(=O)c1ccccc1)C(=O)NC1(C#N)CC1,pKi,[1],6.8
CC(C)C[C@H](NC(=O)c1cc(C(C)(C)C)nn1C)C(=O)NC1(C#N)CC1,pKi,[1],8.3
same,Ki,[2],12.6 nM
CC(C)C[C@H](NC(=O)c1cc(C(C)(C)C)nn1C)C(=O)N(C)N(C)C#N,pKi,[1],9.7
same,K,[4],0.22 10^-6/M/s
same,K,[5],0.04 10^-6/s
same,Ki,[2],0.501 nM
N#CCNC(=O)[C@H](Cc1ccccc1)NC(=O)c1cnccn1,pKi,[1],6.2
same,Ki,[2],1000 nM
same,Ki,[3],6310 nM
Cn1nc(C(C)(C)C)cc1C(=O)N[C@@H](Cc1ccccc1)C(=O)NCC#N,pKi,[1],7.4
same,Ki,[2],3.98 nM
CC(C)C[C@H](NC(=O)C1(c2ccccc2)CCC1)C(=O)NC1(C#N)CC1,pKi,[1],7.6
same,Ki,[2],5.01 nM
same,Ki,[3],20 nM
N#CCNC(=O)C1(NC(=O)c2ccccc2)CCCC1,pKi,[1],4.3
same,Ki,[2],10000 nM
CC(C)(C#N)NC(=O)[C@H](Cc1ccccc1)NC(=O)c1ccccc1,pKi,[1],5.7
same,Ki,[2],631 nM
N#CC1(NC(=O)C2(NC(=O)c3ccccc3)CCCC2)CC1,pKi,[1],5.2
same,Ki,[2],3980 nM
same,Ki,[3],12600 nM
CN(C#N)N(C)C(=O)[C@H](Cc1ccccc1)NC(=O)c1cc(C(C)(C)C)nn1C,koff,[6],8e-08 s⁻¹
same,pKi,[1],9.7
same,K,[4],1 10^-6/M/s
same,K,[5],0.2 10^-6/s
same,Ki,[2],0.126 nM
same,K,[7],7.7e+06 M⁻¹ s⁻¹
same,K,[8],700000 M⁻¹ s⁻¹
same,K,[9],12 10^-6/s
N#CCNC(=O)[C@H](Cc1ccc(O)cc1)NC(=O)c1ccccc1,pKi,[1],5.7
same,Ki,[2],79.4 nM
N#CCNC(=O)[C@H](Cc1cccc(Cl)c1)NC(=O)c1ccccc1,pKi,[1],5.2
same,Ki,[2],20 nM
CC(C)C[C@H](NC(=O)C1(c2ccccc2)CC1)C(=O)NC1(C#N)CC1,pKi,[1],7.2
same,Ki,[2],5.01 nM
same,Ki,[3],25.1 nM
Cn1nc(C(F)(F)F)cc1C(=O)N[C@@H](Cc1ccccc1)C(=O)NCC#N,pKi,[1],7
same,Ki,[2],25.1 nM
same,Ki,[3],501 nM
CC(C)C[C@H](NC(=O)OC(C)(C)C)C(=O)NCC#N,pKi,[1],5.8
same,Ki,[2],2510 nM
N#CCNC(=O)[C@H](Cc1c[nH]c2ccccc12)NC(=O)c1ccccc1,pKi,[1],6.1
same,Ki,[2],50.1 nM
CC(C)(C)OC(=O)N[C@@H](Cc1cccc(Cl)c1)C(=O)NCC#N,pKi,[1],5.2
same,Ki,[2],251 nM
N#CC1(NC(=O)[C@H](Cc2ccccc2)NC(=O)c2ccccc2)CC1,pKi,[1],6.8
same,Ki,[2],50.1 nM
N#CCNC(=O)[C@@H](Cc1ccccc1)NC(=O)c1ccccc1,pKi,[1],5.9
same,Ki,[2],1580 nM
same,Ki,[3],6310 nM
CC(C)C[C@H](NC(=O)c1cc(C(C)(C)C)nn1C)C(=O)NCC#N,pKi,[1],7.6
same,Ki,[2],25.1 nM
CC[C@@H](C)[C@H](NC(=O)c1ccccc1)C(=O)NC1(C#N)CC1,pKi,[1],5.5
same,Ki,[2],3160 nM
same,Ki,[3],25100 nM
Cn1nc(C(C)(C)C)cc1C(=O)N[C@@H](Cc1ccccc1)C(=O)NC1(C#N)CC1,pKi,[1],7.3
same,Ki,[2],5.01 nM
N#CCNC(=O)[C@H](Cc1ccccc1)NC(=O)c1cccs1,pKi,[1],6.4
same,Ki,[2],501 nM

# Reference: ChEMBL document CHEMBL4699568, “Crystal structure of Leishmania mexicana cysteine protease B in complex with a high-affinity azadipeptide nitrile inhibitor” (Bioorg Med Chem, 2020)
